{
  "source": "patent US10874675B2",
  "about": "“Pteridine dione monocarboxylate transporter inhibitors” (The Scripps Research Institute, priority 2015, dated 2020)",
  "data": [
    {"system": "Raji (Burkitt's) lymphoma cells", "assay": "MTT assay for 4-day viability of Raji (Burkitt's) lymphoma cells", "type": "cell-based", "conditions": "Homo sapiens, 96 h, Raji cells (highly express MCT1), estimated values, read-out: approximate potency (EC50 nM)", "description": "Specific Examples of compounds of the invention, with estimated EC50 values determined using an MTT assay for 4-day viability of Raji (Burkitt's) lymphoma cells, a cell line known to highly express MCT1 and to be sensitive to small molecule MCT inhibitors,^4 are shown in Table 3. Assay protocols follow those described in the literature.^4 Other assays that are not described here but that are standard in the field, such as an assay for competitive inhibition of transport of radiolabeled lactic acid, an MCT substrate, may also be useful in establishing mechanism of action of these compounds.", "units": {"EC50": "nM"}, "values": [
      {"molecule": "CC(C)Cn1c(=O)n(C)c(=O)c2nc(CCCCCO)c(COc3ccc4cccnc4c3)nc21", "note": "[Example 20, 6-(5-hydroxypentyl)-1-isobutyl-3-methyl-7-((quinolin-7-yloxy)methyl)pteridine-2,4(1H,3H)-dione]", "EC50": "≤ 250"},
      {"molecule": "CC(C)Cn1c(=O)n(C)c(=O)c2nc(CCCCCO)c(COc3cccc4nccnc34)nc21", "note": "[Example 30, 6-(5-hydroxypentyl)-1-isobutyl-3-methyl-7-((quinoxalin-5-yloxy)methyl)pteridine-2,4(1H,3H)-dione]", "EC50": "≤ 1000"},
      {"molecule": "CC(C)Cn1c(=O)n(C)c(=O)c2nc(CCc3ccccc3CO)c(COc3cccc4ccccc34)nc21", "note": "[Example 35, 6-(2-(hydroxymethyl)phenethyl)-1-isobutyl-3-methyl-7-((naphthalen-1-yloxy)methyl)pteridine-2,4(1H,3H)-dione]", "EC50": "≤ 100"},
      {"molecule": "CC(C)Cn1c(=O)n(C)c(=O)c2nc(CCCCCO)c(COc3ccc4ccccc4c3)nc21", "note": "[Example 10]", "EC50": "< 50"},
      {"molecule": "CC(C)Cn1c(=O)n(C)c(=O)c2nc(CCCCCO)c(COc3ccc(C(F)(F)F)cc3)nc21", "note": "[Example 22, 6-(5-hydroxypentyl)-1-isobutyl-3-methyl-7-((4-(trifluoromethyl)phenoxy)methyl)pteridine-2,4(1H,3H)-dione]", "EC50": "≤ 250"},
      {"molecule": "CC(C)Cn1c(=O)n(C)c(=O)c2nc(CCCCCO)c(COc3ccc(Cl)cc3Br)nc21", "note": "[Example 21, 7-((2-bromo-4-chlorophenoxy)methyl)-6-(5-hydroxypentyl)-1-isobutyl-3-methylpteridine-2,4(1H,3H)-dione]", "EC50": "≤ 250"},
      {"molecule": "CC(C)Cn1c(=O)n(C)c(=O)c2nc(CCCCCO)c(COc3cccc4[nH]ccc34)nc21", "note": "[Example 6, 7-(((1H-indol-4-yl)oxy)methyl)-6-(5-hydroxypentyl)-1-isobutyl-3-methylpteridine-2,4(1H,3H)-dione]", "EC50": "< 50"},
      {"molecule": "CC(C)Cn1c(=O)n(C)c(=O)c2nc(CCCCCO)c(COc3cccc(C(F)(F)F)c3)nc21", "note": "[Example 16, 6-(5-hydroxypentyl)-1-isobutyl-3-methyl-7-((3-(trifluoromethyl)phenoxy)methyl)pteridine-2,4(1H,3H)-dione]", "EC50": "≤ 100"},
      {"molecule": "CC(C)Cn1c(=O)n(C)c(=O)c2nc(CCCCCO)c(COc3ccccc3-c3ccccc3)nc21", "note": "[Example 23, 7-(([1,1′-biphenyl]-2-yloxy)methyl)-6-(5-hydroxypentyl)-1-isobutyl-3-methylpteridine-2,4(1H,3H)-dione]", "EC50": "≤ 250"},
      {"molecule": "CC(C)Cn1c(=O)n(C)c(=O)c2nc(CCCCCO)c(COc3cccc4ccncc34)nc21", "note": "[Example 25, 6-(5-hydroxypentyl)-1-isobutyl-7-((isoquinolin-8-yloxy)methyl)-3-methylpteridine-2,4(1H,3H)-dione]", "EC50": "≤ 250"},
      {"molecule": "CC(C)Cn1c(=O)n(C)c(=O)c2nc(CCCCCO)c(COc3ccccc3Cl)nc21", "note": "[Example 13, 7-((2-chlorophenoxy)methyl)-6-(5-hydroxypentyl)-1-isobutyl-3-methylpteridine-2,4(1H,3H)-dione]", "EC50": "< 50"},
      {"molecule": "CC(C)Cn1c(=O)n(C)c(=O)c2nc(CCCCCO)c(COc3ccccc3C(F)(F)F)nc21", "note": "[Example 7, 6-(5-hydroxypentyl)-1-isobutyl-3-methyl-7-((2-(trifluoromethyl)phenoxy)methyl)pteridine-2,4(1H,3H)-dione]", "EC50": "< 50"},
      {"molecule": "CC(C)Cn1c(=O)n(C)c(=O)c2nc(CCCCCO)c(COc3cccc4cccnc34)nc21", "note": "[Example 26, 6-(5-hydroxypentyl)-1-isobutyl-3-methyl-7-((quinolin-8-yloxy)methyl)pteridine-2,4(1H,3H)-dione]", "EC50": "≤ 500"},
      {"molecule": "CC(C)Cn1c(=O)n(C)c(=O)c2nc(CCCCCO)c(COc3ccc(Br)cc3Br)nc21", "note": "[Example 19, 7-((2,4-dibromophenoxy)methyl)-6-(5-hydroxypentyl)-1-isobutyl-3-methylpteridine-2,4(1H,3H)-dione]", "EC50": "≤ 250"},
      {"molecule": "CC(C)Cn1c(=O)n(C)c(=O)c2nc(CCCCCO)c(COc3cccc(N)c3)nc21", "note": "[Example 33, 7-((3-aminophenoxy)methyl)-6-(5-hydroxypentyl)-1-isobutyl-3-methylpteridine-2,4(1H,3H)-dione]", "EC50": "≤ 100"},
      {"molecule": "CC(C)Cn1c(=O)n(C)c(=O)c2nc(CCCCCO)c(COc3ccccc3F)nc21", "note": "[Example 17, 7-((2-fluorophenoxy)methyl)-6-(5-hydroxypentyl)-1-isobutyl-3-methylpteridine-2,4(1H,3H)-dione]", "EC50": "≤ 100"},
      {"molecule": "CC(C)Cn1c(=O)n(C)c(=O)c2nc(CCCCCO)c(COc3cccnc3)nc21", "note": "[Example 31, 6-(5-hydroxypentyl)-1-isobutyl-3-methyl-7-((pyridin-3-yloxy)methyl)pteridine-2,4(1H,3H)-dione]", "EC50": "≤ 1000"},
      {"molecule": "CC(C)Cn1c(=O)n(C)c(=O)c2nc(CCCCCO)c(COc3cccc([N+](=O)[O-])c3)nc21", "note": "[Example 32, 6-(5-hydroxypentyl)-1-isobutyl-3-methyl-7-((3-nitrophenoxy)methyl)pteridine-2,4(1H,3H)-dione]", "EC50": "≤ 1000"},
      {"molecule": "CC(C)Cn1c(=O)n(C)c(=O)c2nc(CCCCCO)c(COc3ccccc3)nc21", "note": "[Example 15, 6-(5-hydroxypentyl)-1-isobutyl-3-methyl-7-(phenoxymethyl)pteridine-2,4(1H,3H)-dione]", "EC50": "≤ 100"},
      {"molecule": "CC(C)Cn1c(=O)n(C)c(=O)c2nc(CCCCCO)c(COc3ccnc4ccccc34)nc21", "note": "[Example 12, 6-(5-hydroxypentyl)-1-isobutyl-3-methyl-7-((quinolin-4-yloxy)methyl)pteridine-2,4(1H,3H)-dione]", "EC50": "< 50"},
      {"molecule": "CC(C)Cn1c(=O)n(C)c(=O)c2nc(CCCCCO)c(COc3ccc([N+](=O)[O-])c4ccccc34)nc21", "note": "[Example 8, 6-(5-hydroxypentyl)-1-isobutyl-3-methyl-7-(((4-nitronaphthalen-1-yl)oxy)methyl)pteridine-2,4(1H,3H)-dione]", "EC50": 300},
      {"molecule": "CC(C)Cn1c(=O)n(C)c(=O)c2nc(CCCCCO)c(COc3cc4ccccc4cn3)nc21", "note": "[Example 27, 6-(5-hydroxypentyl)-1-isobutyl-7-((isoquinolin-3-yloxy)methyl)-3-methylpteridine-2,4(1H,3H)-dione]", "EC50": "≤ 500"},
      {"molecule": "CC(C)Cn1c(=O)n(C)c(=O)c2nc(CCCCCO)c(COc3ccc(-c4ccccc4)cc3)nc21", "note": "[Example 14, 7-(([1,1′-biphenyl]-4-yloxy)methyl)-6-(5-hydroxypentyl)-1-isobutyl-3-methylpteridine-2,4(1H,3H)-dione]", "EC50": "≤ 100"},
      {"molecule": "CC(C)Cn1c(=O)n(C)c(=O)c2nc(CCCCCO)c(COc3c(Br)cc(Br)c4cnccc34)nc21", "note": "[Example 29, 7-(((6,8-dibromoisoquinolin-5-yl)oxy)methyl)-6-(5-hydroxypentyl)-1-isobutyl-3-methylpteridine-2,4(1H,3H)-dione]", "EC50": "≤ 1000"},
      {"molecule": "CC(C)Cn1c(=O)n(C)c(=O)c2nc(CCCCCO)c(COc3cncc4ccccc34)nc21", "note": "[Example 5]", "EC50": "< 50"},
      {"molecule": "CC(C)Cn1c(=O)n(C)c(=O)c2nc(CCCCCO)c(COc3cccc4ccccc34)nc21", "note": "[Example 2, 6-(5-hydroxypentyl)-1-isobutyl-3-methyl-7-((naphthalen-1-yloxy)methyl)pteridine-2,4(1H,3H)-dione]", "EC50": "< 50"},
      {"molecule": "CC(C)Cn1c(=O)n(C)c(=O)c2nc(CCCCCO)c(COc3ccncc3)nc21", "note": "[Example 28, 6-(5-hydroxypentyl)-1-isobutyl-3-methyl-7-((pyridin-4-yloxy)methyl)pteridine-2,4(1H,3H)-dione]", "EC50": "≤ 1000"}
    ]}
  ]
}
